Type in all cases: cell-based
The target in assay [1] is T1, LPAR1 (Homo sapiens, UniProt Q92633).
T1 construct: host or cells: U2OS
The assay can be described thus: LPAR1 FLIPR Assay. Particulars: U2OS cells stably expressing LPAR1, LPA (EC80), Calcium 6 FLIPR dye; for Emax: read-out: Maximum Inhibition. An outline of the steps:
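Calcium flux read-out (515-575 nm, FLIPR) in LPAR1-expressing U2OS cells after LPA challenge at EC80, given 3 min after compound addition; cells carried Calcium 6 dye loaded 2 h at 37° C. Eleven-point 3-fold dilutions were fitted with a four-parameter Hill equation for IC50.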

Assay [2] has as its target T1, LPAR1. Nature of the assay: IP-One HTRF Assay. Particulars: U2OS cells stably expressing LPAR1, LPA stimulation, IP-One Tb HTRF kit; for Emax: read-out: Maximum Inhibition. Here is the method:
U2OS cells stably expressing LPAR1 (Life Technologies #K1519A) were plated at 20000 cells/well in growth medium (McCoy's 5A(Life Technologies #16600-082)) with 10% dFBS (Life Technologies #26400-036), 0.1 mM non-essential amino acids, 25 mM HEPES, 1 mM sodium pyruvate, 1% penicillin/streptomycin, 50 μg/mL hygromycin, and 100 μg/mL Geneticin® in tissue culture treated 384-well white plates (Greiner #781080) in humidified 5% CO2 at 37° C. overnight. On the day of the assay, culture medium was replaced with 30 μL/well of McCoy's 5A with 0.1% BSA. Cells were incubated in humidified 5% CO2 at 37° C. for 3 more hours. Compounds were 3-fold serial diluted from 2 mM for 11-points using dimethyl sulfoxide. 1 μL of compound in DMSO was diluted in 50 μL stimulation buffer from an IP-One Tb HTRF kit (Cisbio #62IPAPEB) immediately before assay. 15 μL/well of 1.33× compound in stimulation buffer was added to cells after removal of culture medium. After 20 minutes of incubation at 37° C., 5 μL/well of 8 μM LPA diluted in stimulation buffer with 0.1% fatty acid free BSA was added to cells. […]. To EC100 wells were added 4×20 μM LPA. To the cells were added 5 μL/well IP1-d2 conjugate and 5 μLwell IP1-K antibody after 2 hours of incubation at 37° C. Cells were incubated at room temperature for 1 hour (protected from light). The plate was then read at 665 nm and 615 nm using an EnVision® Multilabel Plate Reader. IC50 values were calculated from curve fits of the ratio data using a four-parameter logistic Hill equation (Assay Explorer 3.3 Client).

For assay [3], the target named is T1, LPAR1. The assay can be described thus: LPAR1 Arrestin Assay (arrestin reporter assay). Particulars: U2OS cells stably expressing the LPAR1 receptor, 200 nM 18:1 LPA (EC80); for Emax: read-out: Maximum Inhibition. Here is the method:
One day prior to the experiment, frozen U2OS cells stably expressing the LPAR1 receptor (Life Technologies, Grand Island, N.Y., #K1519A) were thawed, centrifuged at 1,000 rpm for 5 minutes to remove DMSO, and resuspended in FreeStyle™ media (Gibco, Grand Island, N.Y.). Forty microliters of cells were plated into PDL-coated 384-well plates (Greiner Bio-One, Monroe, N.C.) at 10,000 cells/well, and then the plates were incubated overnight in humidified 5% CO2 at 37° C. Test compounds were dissolved in DMSO, and 12-point, 1:3 dilution CRCs were prepared in duplicate; daughter plates were prepared by aliquoting 0.8 μL/well of test compound dilutions into 384-well plates. On the day of the assay, the daughter plates were diluted to 6× stocks using HEPES-buffered HBSS, then 10 μL of 6× test compounds were added to the cells, and the plates were incubated at 37° C. for one hour. After this 1 hour incubation, 10 μL of a 6× stock of the LPAR1 agonist, 18:1 LPA (Avanti Polar Lipids, Alabaster, Ala.), was prepared in HEPES-buffered HBSS+0.1% fatty acid-free BSA (Sigma, St. Louis, Mo.). The 6×LPA was added to all wells for a final concentration of 200 nM, which corresponds to the 18:1 LPA EC80 in this arrestin assay. The final DMSO concentration in the assay plate was 0.1%, and the final BSA concentration was 0.02%. After addition of LPA to all wells, the assay plates were incubated in humidified 5% CO2 at 37° C. for five hours. During the incubation period, 6× dye from the LiveBLAzer™-FRET B/G with CCF4-AM kit (Life Technologies, Grand Island, N.Y.) was prepared according to manufacturers' instructions. At the end of the 5 hour compound incubation, 10 μL of 6× dye was added to each well, and the assay plate was incubated for two hours in the dark at room temperature. Throughout the assay procedure, all volume additions were performed with a Biomek® NX liquid handler (Beckman Coulter, Indianapolis, Ind.). After the 2 hour dye-load, fluorescence was measured on an EnVision® Multilabel Plate Reader (Perkin Elmer, Waltham, Mass.) with an excitation filter at 409/20 nm and emission filters at 460/40 nm and 530/30 nm. Data processing was performed as recommended by the LiveBLAzer™-FRET B/G with CCF4-AM kit manual; all test compound CRCs were performed in duplicate with n≥3.
In general terms: In a reporter assay the amount or activity of a reporter protein is the signal.

Molecules are shown by their SMILES.

T1 sequence (Q92633 whole entry): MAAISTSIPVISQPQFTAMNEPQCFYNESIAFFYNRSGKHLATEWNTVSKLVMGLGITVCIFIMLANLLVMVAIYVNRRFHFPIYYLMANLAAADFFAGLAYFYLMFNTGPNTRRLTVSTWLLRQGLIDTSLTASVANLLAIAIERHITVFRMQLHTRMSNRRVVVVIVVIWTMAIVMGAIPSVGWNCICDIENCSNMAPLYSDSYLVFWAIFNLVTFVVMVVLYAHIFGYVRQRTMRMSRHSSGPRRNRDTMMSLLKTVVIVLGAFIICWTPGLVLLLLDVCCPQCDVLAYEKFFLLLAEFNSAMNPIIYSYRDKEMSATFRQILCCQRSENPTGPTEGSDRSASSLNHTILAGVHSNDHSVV

As a reminder, the IC50 is the concentration at which inhibition is half-maximal. As for `COc1cc(C(=O)N(CCCc2ccccc2)CCC[C@@H](C)C(=O)O)cc(OC)c1C` (single isomer, unassigned) [Example 77], the concentration for half-maximal inhibition (IC50) at LPAR1 [1] is 20 nM; against LPAR1 [2] it was 77 nM; against LPAR1 [3], 5 nM. Moreover, the Emax amounted to 100% at LPAR1 [1], 84% on LPAR1 [2] and 102% at LPAR1 [3].

As for `COc1cc(C(=O)N(CCCc2ccccc2)CC(=O)NC2(C(=O)O)CC2)cc(OC)c1C` [Example 3, 1-{[N-(3,5-dimethoxy-4-methylbenzoyl)-N-(3-phenylpropyl)glycyl]amino}cyclopropane-1-carboxylic Acid], the concentration for half-maximal inhibition (IC50) at LPAR1 [1] came to 71 nM; against LPAR1 [2], 4270 nM; on LPAR1 [3], 2230 nM. The Emax at LPAR1 [1] was found to be 52%; at LPAR1 [2], 76%; on LPAR1 [3] it was 110%.

As to `COc1cc(C(=O)N(CCCCC(=O)O)CCCc2ccccc2)cc(OC)c1C` [Example 4, 5-[(3,5-dimethoxy-4-methylbenzoyl)(3-phenylpropyl)amino]pentanoic Acid], the half-maximal inhibitory concentration (IC50) stood at 14 nM at LPAR1 [1], 115 nM against LPAR1 [2] and 27 nM against LPAR1 [3]. For the same compound, the Emax at LPAR1 [1] was found to be 98%; on LPAR1 [2], 93%; on LPAR1 [3], 101%.

Regarding `COc1cc(C(=O)N(CCCc2ccccc2)CCOCC(=O)O)cc(OC)c1C` [Example 6, {2-[(3,5-dimethoxy-4-methylbenzoyl)(3-phenylpropyl)amino]ethoxy}acetic Acid], the half-maximal inhibitory concentration (IC50) on LPAR1 [1] worked out at 11 nM; against LPAR1 [2], 183 nM; at LPAR1 [3], 126 nM. The Emax is 94% on LPAR1 [1], 97% on LPAR1 [2] and 130% on LPAR1 [3].

As to `COc1cc(OC)cc(C(=O)N(CCCCC(=O)O)CCCc2ccccc2)c1` [Example 7, 5-[(3,5-dimethoxybenzoyl)(3-phenylpropyl)amino]pentanoic Acid], the figures for the IC50 at LPAR1 [1], against LPAR1 [2] and on LPAR1 [3] were 32 nM, 1750 nM and 713 nM, respectively. For the same compound, the Emax at LPAR1 [1] is 82%; at LPAR1 [2], 75%; at LPAR1 [3], 108%.

On to `COc1ccc(C2(C(=O)N(CCCCC(=O)O)CCCc3ccccc3)CC2)cc1` [Example 8, 5-{[1-(4-methoxyphenyl)cyclopropane-1-carbonyl](3-phenylpropyl)amino}pentanoic Acid], for which the figures for the IC50 at LPAR1 [1], against LPAR1 [2] and at LPAR1 [3] were 17 nM, 2250 nM and 691 nM, respectively. The Emax at LPAR1 [1] turned out to be 86%; on LPAR1 [2] it was 84%; on LPAR1 [3] it was 112%.

As to `COc1cc(C(=O)N(CCCCC(=O)O)CCCc2ccccc2)cc(OC)c1OC` [Example 10, 5-[(3-phenylpropyl)(3,4,5-trimethoxybenzoyl)amino]pentanoic Acid], the IC50 on LPAR1 [1] was 64 nM; against LPAR1 [2], 333 nM; against LPAR1 [3], 674 nM. In addition, the Emax worked out at 92% at LPAR1 [1], 77% on LPAR1 [2] and 114% on LPAR1 [3].

Take `COc1cc(C(=O)N(CCCCC(=O)O)CCCc2ccccc2)cc(OC)c1Br` [Example 20, 5-[(4-bromo-3,5-dimethoxybenzoyl)(3-phenylpropyl)amino]pentanoic Acid]: the IC50 was 20 nM at LPAR1 [1], 50 nM against LPAR1 [2] and 43 nM against LPAR1 [3]. Moreover, the Emax came to 99% at LPAR1 [1], 102% on LPAR1 [2] and 101% on LPAR1 [3].

In the case of `COc1cc(C(=O)N(CCCCC(=O)O)CCCc2ccccc2F)cc(OC)c1C` [Example 32, 5-{(3,5-dimethoxy-4-methylbenzoyl)[3-(2-fluorophenyl)propyl]amino}pentanoic Acid], the IC50 at LPAR1 [1] was determined as 18 nM; on LPAR1 [2] it was 321 nM; at LPAR1 [3] it was 76 nM. For the same compound, the results for the Emax on LPAR1 [1], at LPAR1 [2] and on LPAR1 [3] were 98%, 88% and 112%, respectively.

Take `COc1cc(C(=O)N(CCCCC(=O)O)CCCc2cccc(F)c2)cc(OC)c1C` [Example 33, 5-{(3,5-dimethoxy-4-methylbenzoyl)[3-(3-fluorophenyl)propyl]amino}pentanoic Acid]: the IC50 on LPAR1 [1] came out at 19 nM; against LPAR1 [2], 166 nM; at LPAR1 [3], 71 nM. In addition, the Emax on LPAR1 [1] was 99%; on LPAR1 [2], 76%; on LPAR1 [3] it was 110%.

For the compound `COc1cc(C(=O)N(CCCCC(=O)O)CCCc2ccc(F)cc2)cc(OC)c1C` [Example 34, 5-{(3,5-dimethoxy-4-methylbenzoyl)[3-(4-fluorophenyl)propyl]amino}pentanoic Acid], the IC50 at LPAR1 [1] is 24 nM; on LPAR1 [2] it was 880 nM; against LPAR1 [3], 391 nM. The Emax came out at 96% at LPAR1 [1], 70% at LPAR1 [2] and 115% at LPAR1 [3].

For the compound `COc1cc(C(=O)N(CCCCC(=O)O)CCCc2ccccc2)cc(OC)c1C1CC1` [Example 35, 5-[(4-cyclopropyl-3,5-dimethoxybenzoyl)(3-phenylpropyl)amino]pentanoic Acid], the IC50 at LPAR1 [1] worked out at 32 nM; against LPAR1 [2], 59 nM; against LPAR1 [3], 13 nM. Moreover, the Emax on LPAR1 [1] worked out at 98%; at LPAR1 [2], 94%; at LPAR1 [3] it was 103%.

In the case of `COc1cc(C(=O)N(CCCCC(=O)O)CCCc2ccccc2)cc(OC)c1C(F)(F)F` [Example 37, 5-{[3,5-dimethoxy-4-(trifluoromethyl)benzoyl](3-phenylpropyl)amino}pentanoic Acid], the values for the IC50 on LPAR1 [1], at LPAR1 [2] and on LPAR1 [3] were 32 nM, 69 nM and 231 nM, respectively. The Emax was 96% at LPAR1 [1], 79% on LPAR1 [2] and 122% at LPAR1 [3].

As for `COc1cc(C(=O)N(CCCCC(=O)O)CCCc2cccc(Cl)c2)cc(OC)c1C` [Example 38, 5-{[3-(3-chlorophenyl)propyl](3,5-dimethoxy-4-methylbenzoyl)amino}pentanoic Acid], the IC50 at LPAR1 [1] stood at 14 nM; on LPAR1 [2], 194 nM; at LPAR1 [3], 26 nM. Further, the Emax came to 99% on LPAR1 [1], 90% at LPAR1 [2] and 114% on LPAR1 [3].

`COc1cc(C(=O)N(CCCc2ccccc2)CCSCC(=O)O)cc(OC)c1C` [Example 44, ({2-[(3,5-dimethoxy-4-methylbenzoyl)(3-phenylpropyl)amino]ethyl}sulfanyl)acetic Acid]: the figures for the half-maximal inhibitory concentration (IC50) on LPAR1 [1], on LPAR1 [2] and against LPAR1 [3] were 8 nM, 223 nM and 69 nM, respectively. The figures for the Emax on LPAR1 [1], on LPAR1 [2] and at LPAR1 [3] were 96%, 80% and 114%, respectively.

The values above are taken from patent publication US20190119200A1, “TERTIARY AMIDES AND METHOD OF USE” (AbbVie Inc., priority 2016, published 2019).
